Measured values: patent publication EP0041891A1, “6-Methyl-4-(1-piperazinyl)-furo(3,2-c)pyridines, process for their preparation and their therapeutic use” (RIOM LABORATOIRES- C.E.R.M. (Société Anonyme), priority 1980, dated 1981)

Tests used:
[1] = Estimated oral LD50 in the mouse; conditions: in vivo, estimate, read-out: Evaluation DL 50
Excerpt: Dans ce tableau, on indique en outre une estimation de la DL 50 des composés par voie orale chez la souris.

[2] = test system: ptosis réserpinique chez la souris; assay: Antagonism of reserpine-induced ptosis in the mouse (test A); type: in vivo; conditions: 60 min before reserpine i.p., ptosis score (RUBIN) 3 h after reserpine, pair of scores given
Protocol: L'activité psychopharmacologique et spécialement l'activité antidépressive des composés de formule I (dans lesquels R représente l'hydrogène ou le radical méthyle) est illustrée par le résultat des tests suivants : • A - Antagonisme du ptosis réserpinique chez la souris Le produit étudié (ou le.véhicule seul - gomme arabique et eau 1/1 - pour le lot témoin) est administré par intubation oesophagienne à des souris de sexe mâle, de souche OF1 IFFA CREDO de poids moyen 22 + 1 g, puis 60 minutes après traitement, tous les animaux reçoivent par voie intrapéritonéale 1 mg.kg de Réserpine base.
Le composé de l'exemple 1 et la quipazine prise comme référence, ont été administrés à raison de 40 mg.kg^-1 et le composé de l'exemple 2 à raison de 10 mg.kg^-1.
L'appréciation du ptosis (oeil gauche) est donnée selon la cotation de RUBIN et Coll. [J. Pharmacol. Exp. Ther. 120, 125-136 (195717 3 heures après l'administration de Réserpine.

[3] = test system: comportement " muricide " chez le rat LONG-EVANS; assay: Antagonism of muricide behaviour in the LONG-EVANS rat (test C); type: in vivo; conditions: 5 mg.kg^-1 i.p., 60 min before the mouse is presented; percent decrease versus control group
Protocol: C - Antagonisme du comportement " muricide " chez le rat LONG-EVANS
Les animaux utilisés sont des rats de sexe mâle LONG-EVANS de souche pie-noire, en provenance de l'élevage IFFA CREDO, dont la période d'isolement dans des cages individuelles est supérieure à 6 mois. L'administration des composés (ou du véhicule pour les animaux de groupe de contrôle) est effectuée par voie intrapéritonéale à raison de 5 mg.kg ^1, 60 minutes avant la mise en présence d'une souris avec les rats isolés (n ≥ 8 ) .
Le.comportement classiquement décrit comme " muricide " /VALZELLI L. - Actualités Pharmacologiques, 24, 133-152, (1971)] est positif si le rat tue la souris en un temps inférieur ou égal à 3 minutes.
Les résultats sont exprimés en pourcentage de diminution par rapport à celui du groupe des animaux de contrôle.

[4] = test system: stéréotypies induites par l'amphétamine; assay: Potentiation of amphetamine-induced stereotypies in the rat (test B); type: in vivo, rats SPRAGUE-DAWLEY; conditions: for B-Potentialisation des stéréotypies induites par l'amphétamine (score global sur 3 heures): global score over 3 h, printed as treated/control
Protocol: B - Potentialisation des stéréotypies induites par l'amphétamine
Ce test est effectué sur des rats SPRAGUE-DAWLEY de souche OFA, provenant de l'élevage IFFA CREDO et d'un poids moyen de 150 + 10 g.
Le protocole mis en oeuvre est celui préconisé par SIMON et CHERMAT [J. Pharmacol. (Paris) 3 (2) 235-238 (1972)]%. Le produit étudié (ou le véhicule seul pour le lot témoin) est administré par voie intrapéritonéale à raison de 5 mg.kg^-1.
Les résultats expriment le score global sur 3 heures.

[5] = 40 mg.kg^-1 oral (oesophageal intubation)
[6] = 5 mg.kg^-1 i.p., percent increase of global score over control

SMILES: Cc1cc2occc2c(N2CCNCC2)n1 [EXEMPLE 1, 6-methyl-4-(l-piperazinyl)-furo [3,2-c] pyridine]
- LD50 [1]: 250 mg/kg
- A-Activité anti-réserpinique vis-à-vis du ptosis [2, 5]: 13 / 23
- C-Antagonisme du comportement muricide [3]: 90%
- B-Potentialisation des stéréotypies induites par l'amphétamine (score global sur 3 heures) ([4]; 5 mg.kg^-1 i.p.): 118/95
- B-Potentialisation des stéréotypies induites par l'amphétamine [4, 6]: 24,2%

SMILES: c1ccc2nc(N3CCNCC3)ccc2c1 [QUIPAZINE, quipazine, reference compound]
- LD50 [1]: 233 to 376 mg/kg
- A-Activité anti-réserpinique vis-à-vis du ptosis [2, 5]: 14 / 23
- C-Antagonisme du comportement muricide [3]: 64,7%
- B-Potentialisation des stéréotypies induites par l'amphétamine ([4]; even at 20 I P): Inactif même à 20 I P

SMILES: c1cc2occc2c(N2CCNCC2)n1 [EXEMPLE 2, 4-(l-piperazinyl)-furo [3,2-c] pyridine]
- LD50 [1]: 200 mg/kg
- A-Activité anti-réserpinique vis-à-vis du ptosis ([2]; 10 mg.kg^-1 oral (oesophageal intubation)): 15 / 22
- C-Antagonisme du comportement muricide [3]: 74%
- B-Potentialisation des stéréotypies induites par l'amphétamine (score global sur 3 heures) ([4]; 5 mg.kg^-1 i.p.): 129/114
- B-Potentialisation des stéréotypies induites par l'amphétamine [4, 6]: 13,2%
